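Following 48 hours of exposure in 96-well plates, responses at five concentrations were used to interpolate endpoints linearly. TGI denotes the concentration required for complete inhibition of growth.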
How the values were obtained:
Experiment in all cases: DTP human tumour cell line panel, 48 h
U251 CNS = tested on: U251 CNS
MALME-3M melanoma = tested on: MALME-3M melanoma
HOP-62 NSCLC = tested on: HOP-62 NSCLC
SNB-19 CNS = tested on: SNB-19 CNS
SK-MEL-2 melanoma = tested on: SK-MEL-2 melanoma
MCF7 breast = tested on: MCF7 breast
HCC-2998 colon = tested on: HCC-2998 colon
RXF 393 renal = tested on: RXF 393 renal
786-0 renal = tested on: 786-0 renal
UO-31 renal = tested on: UO-31 renal
SK-OV-3 ovarian = tested on: SK-OV-3 ovarian
IGROV1 ovarian = tested on: IGROV1 ovarian
SK-MEL-5 melanoma = tested on: SK-MEL-5 melanoma
HCT-15 colon = tested on: HCT-15 colon
OVCAR-4 ovarian = tested on: OVCAR-4 ovarian
SF-268 CNS = tested on: SF-268 CNS
SNB-75 CNS = tested on: SNB-75 CNS
LOX IMVI melanoma = tested on: LOX IMVI melanoma
SK-MEL-28 melanoma = tested on: SK-MEL-28 melanoma
NCI-H522 lung = tested on: NCI-H522 lung
SW-620 colon = tested on: SW-620 colon
NCI-H226 lung = tested on: NCI-H226 lung
UACC-257 melanoma = tested on: UACC-257 melanoma
NCI/ADR-RES ovarian = tested on: NCI/ADR-RES ovarian
ACHN renal = tested on: ACHN renal
TK-10 renal = tested on: TK-10 renal
CAKI-1 renal = tested on: CAKI-1 renal
DU-145 prostate = tested on: DU-145 prostate
MDA-MB-435 = tested on: MDA-MB-435
NCI-H23 lung = tested on: NCI-H23 lung
OVCAR-3 ovarian = tested on: OVCAR-3 ovarian
UACC-62 melanoma = tested on: UACC-62 melanoma
OVCAR-8 ovarian = tested on: OVCAR-8 ovarian
OVCAR-5 ovarian = tested on: OVCAR-5 ovarian
HS 578T breast = tested on: HS 578T breast
M14 melanoma = tested on: M14 melanoma
A498 renal = tested on: A498 renal
MDA-N = tested on: MDA-N
KM12 colon = tested on: KM12 colon
T-47D breast = tested on: T-47D breast
RPMI-8226 leukemia = tested on: RPMI-8226 leukemia
HOP-92 NSCLC = tested on: HOP-92 NSCLC
PC-3 prostate = tested on: PC-3 prostate
CCRF-CEM leukemia = tested on: CCRF-CEM leukemia
COLO 205 colon = tested on: COLO 205 colon
A549 NSCLC = tested on: A549 NSCLC
HT29 colon = tested on: HT29 colon
MDA-MB-231 breast = tested on: MDA-MB-231 breast
EKVX NSCLC = tested on: EKVX NSCLC
NCI-H460 lung = tested on: NCI-H460 lung
SF-295 CNS = tested on: SF-295 CNS
SR leukemia = tested on: SR leukemia
MOLT-4 leukemia = tested on: MOLT-4 leukemia
HCT-116 colon = tested on: HCT-116 colon
SF-539 CNS = tested on: SF-539 CNS
K-562 leukemia = tested on: K-562 leukemia
SN12C renal = tested on: SN12C renal
HL-60(TB) leukemia = tested on: HL-60(TB) leukemia

COP(C)(=O)C1=CCN(C(=O)OCC[Si](C)(C)C)CC1 (stereo unspecified)
TGI (U251 CNS): > 100 µM | TGI (MALME-3M melanoma): > 100 µM | TGI (HOP-62 NSCLC): > 100 µM | TGI (SNB-19 CNS): > 100 µM | TGI (SK-MEL-2 melanoma): > 100 µM | TGI (MCF7 breast): > 100 µM | TGI (HCC-2998 colon): > 100 µM | TGI (RXF 393 renal): > 100 µM | TGI (786-0 renal): > 100 µM | TGI (UO-31 renal): > 100 µM | TGI (SK-OV-3 ovarian): > 100 µM | TGI (IGROV1 ovarian): > 100 µM | TGI (SK-MEL-5 melanoma): > 100 µM | TGI (HCT-15 colon): > 100 µM | TGI (OVCAR-4 ovarian): > 100 µM | TGI (SF-268 CNS): > 100 µM | TGI (SNB-75 CNS): > 100 µM | TGI (LOX IMVI melanoma): > 100 µM | TGI (SK-MEL-28 melanoma): > 100 µM | TGI (NCI-H522 lung): > 100 µM | TGI (SW-620 colon): > 100 µM | TGI (NCI-H226 lung): > 100 µM | TGI (UACC-257 melanoma): > 100 µM | TGI (NCI/ADR-RES ovarian): > 100 µM | TGI (ACHN renal): > 100 µM | TGI (TK-10 renal): > 100 µM | TGI (CAKI-1 renal): > 100 µM | TGI (DU-145 prostate): > 100 µM | TGI (MDA-MB-435): > 100 µM | TGI (NCI-H23 lung): > 100 µM | TGI (OVCAR-3 ovarian): > 100 µM | TGI (UACC-62 melanoma): > 100 µM | TGI (OVCAR-8 ovarian): > 100 µM | TGI (OVCAR-5 ovarian): > 100 µM | TGI (HS 578T breast): > 100 µM | TGI (M14 melanoma): > 100 µM | TGI (A498 renal): > 100 µM | TGI (MDA-N): > 100 µM | TGI (KM12 colon): > 100 µM | TGI (T-47D breast): > 100 µM | TGI (RPMI-8226 leukemia): > 100 µM | TGI (HOP-92 NSCLC): > 100 µM | TGI (PC-3 prostate): > 100 µM | TGI (CCRF-CEM leukemia): > 100 µM | TGI (COLO 205 colon): > 100 µM | TGI (A549 NSCLC): > 100 µM | TGI (HT29 colon): > 100 µM | TGI (MDA-MB-231 breast): > 100 µM | TGI (EKVX NSCLC): > 100 µM | TGI (NCI-H460 lung): > 100 µM | TGI (SF-295 CNS): > 100 µM

CC(=O)CC1(OC(=O)C2C(C=C(C)C)C2(C)C)C(=O)Nc2ccccc21 (stereo unspecified)
TGI (U251 CNS): > 100 µM | TGI (MALME-3M melanoma): > 100 µM | TGI (HOP-62 NSCLC): > 100 µM | TGI (SNB-19 CNS): > 100 µM | TGI (SK-MEL-2 melanoma): > 100 µM | TGI (HCC-2998 colon): > 100 µM | TGI (RXF 393 renal): > 100 µM | TGI (786-0 renal): > 100 µM | TGI (UO-31 renal): > 100 µM | TGI (SK-OV-3 ovarian): > 100 µM | TGI (IGROV1 ovarian): > 100 µM | TGI (SK-MEL-5 melanoma): > 100 µM | TGI (SR leukemia): > 100 µM | TGI (HCT-15 colon): > 100 µM | TGI (OVCAR-4 ovarian): > 100 µM | TGI (SF-268 CNS): > 100 µM | TGI (SNB-75 CNS): > 100 µM | TGI (LOX IMVI melanoma): > 100 µM | TGI (SK-MEL-28 melanoma): > 100 µM | TGI (NCI-H522 lung): > 100 µM | TGI (SW-620 colon): > 100 µM | TGI (NCI-H226 lung): > 100 µM | TGI (MOLT-4 leukemia): > 100 µM | TGI (UACC-257 melanoma): > 100 µM | TGI (HCT-116 colon): > 100 µM | TGI (NCI/ADR-RES ovarian): > 100 µM | TGI (ACHN renal): > 100 µM | TGI (TK-10 renal): > 100 µM | TGI (SF-539 CNS): > 100 µM | TGI (CAKI-1 renal): > 100 µM | TGI (K-562 leukemia): > 100 µM | TGI (DU-145 prostate): > 100 µM | TGI (MDA-MB-435): > 100 µM | TGI (NCI-H23 lung): > 100 µM | TGI (OVCAR-3 ovarian): > 100 µM | TGI (UACC-62 melanoma): > 100 µM | TGI (OVCAR-8 ovarian): > 100 µM | TGI (OVCAR-5 ovarian): > 100 µM | TGI (HS 578T breast): > 100 µM | TGI (M14 melanoma): > 100 µM | TGI (A498 renal): > 100 µM | TGI (MDA-N): > 100 µM | TGI (KM12 colon): > 100 µM | TGI (SN12C renal): > 100 µM | TGI (T-47D breast): > 100 µM | TGI (RPMI-8226 leukemia): > 100 µM | TGI (PC-3 prostate): > 100 µM | TGI (HL-60(TB) leukemia): > 100 µM | TGI (CCRF-CEM leukemia): > 100 µM | TGI (COLO 205 colon): > 100 µM | TGI (A549 NSCLC): > 100 µM | TGI (HT29 colon): > 100 µM | TGI (MDA-MB-231 breast): > 100 µM | TGI (EKVX NSCLC): > 100 µM | TGI (NCI-H460 lung): > 100 µM | TGI (SF-295 CNS): > 100 µM

O=C(/C=C/c1ccsc1)c1ccc(Cl)cc1
TGI (U251 CNS): > 100 µM | TGI (MALME-3M melanoma): 95.3 µM | TGI (HOP-62 NSCLC): > 100 µM | TGI (SNB-19 CNS): > 100 µM | TGI (SK-MEL-2 melanoma): > 100 µM | TGI (MCF7 breast): > 100 µM | TGI (HCC-2998 colon): > 100 µM | TGI (786-0 renal): > 100 µM | TGI (UO-31 renal): > 100 µM | TGI (SK-OV-3 ovarian): > 100 µM | TGI (IGROV1 ovarian): > 100 µM | TGI (SK-MEL-5 melanoma): > 100 µM | TGI (SR leukemia): 43.7 µM | TGI (HCT-15 colon): > 100 µM | TGI (OVCAR-4 ovarian): > 100 µM | TGI (SF-268 CNS): > 100 µM | TGI (SNB-75 CNS): > 100 µM | TGI (LOX IMVI melanoma): 47.8 µM | TGI (SK-MEL-28 melanoma): > 100 µM | TGI (SW-620 colon): > 100 µM | TGI (NCI-H226 lung): > 100 µM | TGI (MOLT-4 leukemia): 43.7 µM | TGI (UACC-257 melanoma): > 100 µM | TGI (HCT-116 colon): > 100 µM | TGI (NCI/ADR-RES ovarian): > 100 µM | TGI (ACHN renal): > 100 µM | TGI (TK-10 renal): > 100 µM | TGI (SF-539 CNS): > 100 µM | TGI (CAKI-1 renal): > 100 µM | TGI (K-562 leukemia): 95.7 µM | TGI (DU-145 prostate): > 100 µM | TGI (MDA-MB-435): > 100 µM | TGI (NCI-H23 lung): > 100 µM | TGI (UACC-62 melanoma): > 100 µM | TGI (OVCAR-8 ovarian): > 100 µM | TGI (OVCAR-5 ovarian): > 100 µM | TGI (HS 578T breast): > 100 µM | TGI (M14 melanoma): > 100 µM | TGI (A498 renal): > 100 µM | TGI (MDA-N): > 100 µM | TGI (KM12 colon): > 100 µM | TGI (SN12C renal): > 100 µM | TGI (T-47D breast): > 100 µM | TGI (RPMI-8226 leukemia): 64.8 µM | TGI (PC-3 prostate): > 100 µM | TGI (HL-60(TB) leukemia): 49.8 µM | TGI (CCRF-CEM leukemia): 53.3 µM | TGI (COLO 205 colon): > 100 µM | TGI (A549 NSCLC): > 100 µM | TGI (HT29 colon): > 100 µM | TGI (MDA-MB-231 breast): > 100 µM | TGI (EKVX NSCLC): > 100 µM | TGI (NCI-H460 lung): > 100 µM | TGI (SF-295 CNS): > 100 µM
